According to ChEMBL document CHEMBL3877265, “Design, synthesis and docking studies of novel 1,2-dihydro-4-hydroxy-2-oxoquinoline-3-carboxamide derivatives as a potential anti-proliferative agents” (2017):

Experiments:
Format in all cases: functional
[1] = Antiproliferative activity against human PANC1 cells after 48 hrs by SRB assay; settings: PANC-1, 48 h
[2] = Antiproliferative activity against human HeLa cells after 48 hrs by SRB assay
[3] = Antiproliferative activity against human MDA-MB-231 cells after 48 hrs by SRB assay; settings: MDA-MB-231, 48 h

| SMILES | GI50 ([1]; read-out: GI50) [nM] | GI50 ([1]; read-out: pGI50 (converted)) [nM] | GI50 ([2]; read-out: GI50) [nM] | GI50 ([2]; read-out: pGI50 (converted)) [nM] | GI50 ([3]; read-out: GI50) [nM] | GI50 ([3]; read-out: pGI50 (converted)) [nM] |
| --- | --- | --- | --- | --- | --- | --- |
| Cn1c(=O)c(C(=O)NCCC(=O)N2CCN(c3ccccc3)CC2)c(O)c2ccccc21 | 1570 | 1570 | 3900 | 3900 | 1620 | 1620 |
| COc1cccc(N2CCN(C(=O)CCNC(=O)c3c(O)c4ccccc4n(C)c3=O)CC2)c1 | 510 | 510 | 730 | 730 | 1300 | 1300 |
| Cn1c(=O)c(C(=O)NCCC(=O)N2CCCCC2)c(O)c2ccccc21 | 150 | 150 | 820 | 820 | 1400 | 1400 |
| CN1CCN(C(=O)CCNC(=O)c2c(O)c3ccccc3n(C)c2=O)CC1 | 1660 | 1660 | 1160 | 1160 | 590 | 590 |
| Cn1c(=O)c(C(=O)NCCC(=O)N2CCN(c3ccccc3F)CC2)c(O)c2ccccc21 | 2500 | 2500 | 960 | 960 | 1700 | 1700 |
| Cn1c(=O)c(C(=O)NCCC(=O)N2CCN(c3ccc(C(F)(F)F)cc3)CC2)c(O)c2ccccc21 | 2550 | 2550 | 3700 | 3700 | 5400 | 5400 |
| CCN1CCN(C(=O)CCNC(=O)c2c(O)c3ccccc3n(C)c2=O)CC1 | 480 | 480 | 880 | 880 | 1320 | 1320 |
| Cn1c(=O)c(C(=O)NCCC(=O)N2CCN(Cc3ccccc3)CC2)c(O)c2ccccc21 | 950 | 950 | 760 | 760 | 510 | 510 |
| Cn1c(=O)c(C(=O)NCCC(=O)N2CCSCC2)c(O)c2ccccc21 | 1910 | 1910 | 3000 | 3000 | 2250 | 2250 |
| Cn1c(=O)c(C(=O)NCCC(=O)N2CCC(Cc3ccccc3)CC2)c(O)c2ccccc21 | 680 | 680 | 1400 | 1400 | 710 | 710 |
| Cn1c(=O)c(C(=O)NCCC(=O)N2CCN(c3ccc([N+](=O)[O-])cc3)CC2)c(O)c2ccccc21 | 420 | 420 | 940 | 940 | 300 | 300 |
| COc1ccccc1N1CCN(C(=O)CCNC(=O)c2c(O)c3ccccc3n(C)c2=O)CC1 | 700 | 700 | 740 | 740 | 1200 | 1200 |
| COc1ccc(C[C@@H](O)c2cc(OC)c(OC)c(OC)c2)cc1O [COMBRETASTATIN] | 59 | 59 | 83 | 83 | 90 | 90 |
| COC(=O)Nc1nc2cc(C(=O)c3cccs3)ccc2[nH]1 [NOCODAZOLE] | < 10 | – | < 10 | – | < 10 | – |
